Like-named read-outs stand apart in the source and are kept apart here.
Assays:
carrageenin edema = assay: Inhibitory activity on carrageenin edema; format: in vivo, Wistar male rats; conditions: rat, paw swelling volume three hours after carrageenin; for Inhibition rate (%): dose 50 mg/kg orally
Protocol: Using Wistar male rats (body weight: about 100 g), each test group consisted of 5 rats. A test compound was mixed with Tween 80 [polyoxyethylenesorbitan monooleate (manufactured by Nacalai Tesque K.K.)], and distilled water was added thereto to obtain a 2% Tween 80 suspension, or it was dissolved in the form of a salt in water to obtain an aqueous solution. Either the suspension or the aqueous solution was orally administered in an amount of 200 mg/kg, 100 mg/kg, 50 mg/kg or 25 mg/kg. One hour later, 0.1 ml of a 1% λ-carrageenin solution dissolved in a physiological saline was injected subcutaneously to the right hind paw of each rat to cause inflamation. Three hours later, the paw volume was measured by a paw volume measuring device (manufactured by Ugobasiee K.K.). A swelling volume was obtained from the difference from the value before the inflammation. Inhibition rate (%) = (l -(F)/(E)) x 100 [formula] • F: Average swelling volume in the group to which a test compound was administered. • E: Average swelling volume in the control group.

[1] = system: experimental acute pancreatitis model; assay: Effects against acute pancreatitis (Test Example 8, closed duodenal loop method, lesion scores); format: in vivo, Crj-CD male rats; conditions: Rattus norvegicus, 10 mg/kg single intravenous injection, sodium salt, 6 hours after ventrotomy
Protocol: Using Crj-CD male rats, each test group consisted of 3 rats. An experimental acute pancreatitis model was prepared by a closed duodenal loop method under anethesia with halothane (manufactured by Hoechst Japan) and nitrous oxide (manufactured by Sumitomo Seika K.K.) applied by a general inhalation anesthesia machine (Model EM2 and halothane evaporator F-Model). Each compound (subjected to the test in the form of a sodium salt) was continuously intravenously injected into the tail vein in an amount of 0.4 ml/100 g to 0.6 ml/100 g at a rate of 0.05 ml per minute by a pump (Technicon AA II Proportioning Pump III, manufactured by Technicon Instruments Corporation) or rapidly intravenously injected. No injection was made to a control group. Gross pathological examination was conducted upon expiration of 6 hours after the ventrotomy in the case of the group to which the compound was administered. With respect to each of four lesions among pancreatic lesions i.e. petechia, ecchymosis, pancreatic necrosis and abdominal fatty necrosis, the grade and the distribution of lesions were scored with five grades of 0, 0.5, 1, 2 and 3 (severe lesions are 3). The sum of all lesions was designated as scores of pancreatitis lesions, and the sum of the score of petechia and the score of ecchymosis only was designated as scores of hemorrhagic lesions. The pancreatitis inhibition rate (%) and the hemorrhage inhibition rate (%) were obtained by the following formulas, and the results are shown in Table 13. Pancreatitis inhibition rate (%) = (l -(H)/(G)) x 100 [formula] • H: Scores of pancreatitis lesions of the group to which a test compound was administered. • G: Scores of pancreatitis lesions of the control group. Hemorrhage inhibition rate (%) = (l -(J)/(I)) x 100 [formula] • J: Scores of hemorrhagic lesions of the group to which a test compound was administered. • I: Scores of hemorrhagic lesions of the control group.

[2] = target: T1, Porcine pancreatic phospholipase A2 (Sus scrofa, UniProt P00592); assay: Phospholipase A2 inhibitory activity, method B (L-α-dipalmitoylphosphatidylcholine substrate); format: biochemical; conditions: 37°C for 30 minutes; for inhibition at 1000 ppm: 1,000 ppm, read-out: % inhibition of PLA2 (1,000 ppm)
T1 construct: purchased Boehringer Mannheim·Yamanouchi K.K. 161454·122416
Protocol: To a solution prepared by dissolving 9.2 mg of L-α-dipalmitoylphosphatidylcholine (manufactured by Nichiyu Liposome K.K.) in 0.5 ml of chloroform, a solution prepared by dissolving 32 mg of sodium cholate (manufactured by Wako Pure Chemical Industries, Ltd.) in 0.5 ml of methanol, was added, followed by mixing. The solvent of the mixture was removed under a nitrogen stream, and then 2.5 ml of a 250 mM sodium chloride solution [prepared by dissolving sodium chloride in a 100 mM Tris-HCl buffer solution {tris(hydroxymethyl)aminomethane (manufactured by Nacalai Tesque K.K.) was adjusted to pH8.0 with hydrochloric acid}] was added thereto, and the mixture was dissolved under stirring to obtain a substrate.
Porcine pancreatic phospholipase A2 [(161454·122416) manufactured by Boehringer Mannheim·Yamanouchi K.K.] was used.
To a 96 well microtitration plate, 20 µl of a solution containing calcium chloride, bovine serum alubmin (manufactured by Sigma Chemical, Co.) and a Tris-HCl buffer solution (pH8.0) at concentrations of 25 mM, 4.5 mg/ml and 100 mM, respectively, 5 µl of a solution prepared by dissolving 10 mg of a test compound in 500 µl of diemthylsulfoxide, followed by an addition of 500 µl of a 200 mM Tris-HCl buffer solution, 5 µl of an enzyme solution (10 µg/ml) [prepared by dissolving the enzyme in a bovine serum alubmin solution (prepared by dissolving bovine serum alubmin in a 100 mM Tris-HCl buffer solution at a concentration of 1 mg/ml)] and 20 µl of the substrate, were added and reacted at 37°C for 30 minutes. After termination of the reaction, the released free fatty acid was quantitatively analyzed in accordance with the ACS-ACOD (acyl CoA synthetase-acyl CoA oxidase) method [a kit of NEFA C test wako (manufactured by Wako Pure Chemical Industries, Ltd.) was used]. The quantitative analysis was made by means of Microplate ELISA Reader (Model 2550EIA Reader, manufactured by Bio-Rad Laboratories) at a wavelength of 540 nm. Separately, such experiments as mentioned above, were carried out at various concentrations (1 µg/ml, 0.75 µg/ml, 0.5 µg/ml and 0.25 µg/ml) of phospholipase A2 without a test compound. Then, the concentration of the free fatty acid versus the concentration of phospholipase A2 was plotted.
From this standard curve, the apparent concentration of phospholipase A2 in the case with a test compound, was read. Then, the percent inhibition of the enzyme was calculated by the following formula. Percent inhibition (%) = (l -(A)/(B)) x 100 [formula] • A: Apparent enzyme concentration when a test compound is added. • B: True enzyme concentration when a test compound is added.

[3] = read-out: Inhibition rate of hemorrhagic lesions (%)
[4] = read-out: Inhibition rate of pancreatitis lesions (%)

T1 sequence (P00592 23-146): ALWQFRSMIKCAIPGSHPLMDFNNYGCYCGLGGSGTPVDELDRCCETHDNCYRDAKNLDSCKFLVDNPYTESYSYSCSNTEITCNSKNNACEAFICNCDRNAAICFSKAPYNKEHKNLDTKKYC

| SMILES | inhibition in vivo at 10 mg/kg [1, 3] [%] | inhibition in vivo at 10 mg/kg [1, 4] [%] | inhibition at 1000 ppm [2] [%] | also measured |
| --- | --- | --- | --- | --- |
| CCOC(=O)NC(=S)Nc1cc(C(F)(F)F)cnc1NS(=O)(=O)c1ccc(C)cc1 [Compound No. 25] | – | – | – | inhibition in vivo at 200 mg/kg (carrageenin edema; po, 3 h, dose 200 mg/kg orally, read-out: Inhibition rate (%)): 27% |
| CS(=O)(=O)Nc1ncc(C(F)(F)F)cc1NC(=O)c1ccc2c(c1)OCC(F)(F)O2 [Compound No. 35] | 35 | 35 | – | – |
| CS(=O)(=O)Nc1ncc(C(F)(F)F)cc1NC(=O)c1ccc2c(c1)OCCO2 [compound 34] | 30 | 30 | – | – |
| CS(=O)(=O)Nc1ncc(C(F)(F)F)cc1NC(=O)CC1CCCC1 [compound 62] | 45 | 61 | 53 | – |
| CS(=O)(=O)Nc1ncc(C(F)(F)F)cc1NC(=O)CCc1ccccc1 [compound 64] | 60 | 68 | 61 | – |
| CS(=O)(=O)Nc1ncc(C(F)(F)F)cc1NC(=O)C1CCCCCC1 [compound 67] | – | – | 82 | inhibition in vivo at 25 mg/kg (carrageenin edema; po, 3 h, dose 25 mg/kg orally, read-out: Inhibition rate (%)): 19% |
| CS(=O)(=O)Nc1ncc(C(F)(F)F)cc1NC(=O)C1=CCCCC1 [compound 69] | – | – | 63 | Inhibition rate (%) (carrageenin edema): 25% |
| CC(C)=CC(=O)Nc1cc(C(F)(F)F)cnc1NS(C)(=O)=O [compound 70] | – | – | 40 | – |
| CS(=O)(=O)Nc1ncc(C(F)(F)F)cc1NC(=O)C=Cc1ccccc1 [compound 71] | – | – | 77 | – |
| C=CCCC(=O)Nc1cc(C(F)(F)F)cnc1NS(C)(=O)=O [compound 74] | 66 | 67 | 33 | – |
| CS(=O)(=O)Nc1ncc(C(F)(F)F)cc1NC(=O)C#Cc1ccccc1 [compound 75] | – | – | 81 | – |
| CS(=O)(=O)Nc1ncc(C(F)(F)F)cc1NC(=O)c1ccc(F)cc1F [compound 76] | – | – | 61 | – |
| CCc1ccc(C(=O)Nc2cc(C(F)(F)F)cnc2NS(C)(=O)=O)cc1 [compound 81] | 49 | 58 | 94 | – |
| Cc1ccc(C(=O)Nc2cc(C(F)(F)F)cnc2NS(C)(=O)=O)s1 [compound 83] | 53 | 51 | 64 | – |
| CS(=O)(=O)Nc1ncc(C(F)(F)F)cc1NC(=O)c1ccsc1 [compound 84] | – | – | 56 | – |
| CS(=O)(=O)Nc1ncc(C(F)(F)F)cc1NC(=O)c1ccco1 [compound 85] | 57 | 67 | 33 | – |
| CS(=O)(=O)Nc1ncc(C(F)(F)F)cc1NC(=O)c1cc2c(s1)CCC2 [compound 88] | – | – | 83 | – |
| CC(Cl)(Cl)C(=O)Nc1cc(C(F)(F)F)cnc1NS(C)(=O)=O [compound 89] | – | – | 51 | – |
| CS(=O)(=O)Nc1ncc(C(F)(F)F)cc1NC(=O)C(=O)c1ccccc1 [compound 90] | – | – | 79 | – |
| O=C(Nc1cc(C(F)(F)F)cnc1NS(=O)(=O)C(F)(F)F)c1cccs1 [compound 92] | – | – | 75 | – |

| SMILES | inhibition in vivo at 10 mg/kg [1, 3] [%] | inhibition in vivo at 10 mg/kg [1, 4] [%] | inhibition at 1000 ppm [2] [%] | also measured |
| --- | --- | --- | --- | --- |
| CCS(=O)(=O)Nc1ncc(C(F)(F)F)cc1NC(=O)C1CC=CCC1 (centres unmarked) [compound 95] | – | – | 85 | – |
| CCS(=O)(=O)Nc1ncc(C(F)(F)F)cc1NC(=O)C1CCCCCC1 [compound 97] | 35 | 35 | 88 | – |
| CCS(=O)(=O)Nc1ncc(C(F)(F)F)cc1NC(=O)c1cccc(C(F)(F)F)c1 [compound 99] | – | – | 86 | – |
| CCS(=O)(=O)Nc1ncc(C(F)(F)F)cc1NC(=O)c1ccc(C(F)(F)F)cc1 [compound 100] | – | – | 83 | – |
| CC(C)S(=O)(=O)Nc1ncc(C(F)(F)F)cc1NC(=O)C1CCCCC1 [compound 103] | – | – | 86 | – |
| CCCCS(=O)(=O)Nc1ncc(C(F)(F)F)cc1NC(=O)C1CC1 [compound 107] | 63 | 61 | – | – |
| CCCCS(=O)(=O)Nc1ncc(C(F)(F)F)cc1NC(=O)C(F)(F)Cl [compound 108] | – | – | 61 | – |
| COc1ccc(S(=O)(=O)Nc2ncc(C(F)(F)F)cc2NC(=O)c2cccs2)cc1 [compound 109] | – | – | 67 | – |
| CN(C)S(=O)(=O)Nc1ncc(C(F)(F)F)cc1NC(=O)C1CCCC1 [compound 111] | – | – | 41 | – |
| CN(C)S(=O)(=O)Nc1ncc(C(F)(F)F)cc1NC(=O)C(F)(F)C(F)(F)F [compound 112] | – | – | 79 | – |
| COS(=O)(=O)Nc1ncc(C(F)(F)F)cc1NC(=O)C1CCCCC1 [compound 115] | – | – | 52 | – |
| COS(=O)(=O)Nc1ncc(C(F)(F)F)cc1NC(=O)c1ccc2c(c1)CCC2 [compound 116] | – | – | 69 | – |
| CCOS(=O)(=O)Nc1ncc(C(F)(F)F)cc1NC(=O)C1CCCCC1 [compound 117] | 30 | 30 | 65 | – |
| CCOS(=O)(=O)Nc1ncc(C(F)(F)F)cc1NC(=O)c1ccc2c(c1)CCC2 [compound 118] | – | – | 84 | – |
| Cc1cc(C)cc(C(=O)Nc2cc(C(F)(F)F)cnc2NS(C)(=O)=O)c1 [compound 122] | 51 | 51 | 56 | – |
| CCCCCCC(=O)Nc1cc(C(F)(F)F)cnc1NS(C)(=O)=O [compound 124] | 51 | 51 | 78 | – |
| O=C(Nc1cc(C(F)(F)F)cnc1NS(=O)(=O)c1cccs1)C1CCCCC1 [compound 126] | – | – | 84 | – |
| O=C(Nc1cc(C(F)(F)F)cnc1NS(=O)(=O)c1cccs1)c1ccc2c(c1)CCC2 [compound 127] | – | – | 89 | – |
| O=C(Nc1ncc(C(F)(F)F)cc1NC(=O)C1CCCCC1)c1ccccc1 [compound 150] | – | – | – | Inhibition rate (%) (carrageenin edema): 23% |
| CS(=O)(=O)Nc1ncc(C(F)(F)F)cc1NC(=O)C(F)(F)C(F)(F)F [compound 260] | – | – | – | % inhibition of PLA2 (1,000 ppm) [2]: 53% |
